Measurements as given in patent publication US10858342B2, “Bicyclic imidazole derivatives useful for the treatment of renal diseases, cardiovascular diseases and fibrotic diseases” (Boehringer Ingelheim International GmbH, priority 2016, dated 2020).
Read-outs that look alike come from different tables or passages of the source.

Key:
Format in all cases: biochemical, cynomolgus monkey
[1] = tested on: aldosterone synthase (CYP11B2); test: Inhibition of aldosterone synthase (cynomolgus adrenal mitochondria, aldosterone by mass spectrometry); conditions: selectivity for aldosterone synthase inhibition over cortisol synthase (CYP11B1) inhibition, fold
In short: (§1)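 Cynomolgus adrenal mitochondria (50 units CYP11B2 activity) incubated with 2 μM corticosterone in 100 mM potassium phosphate pH 7.4, 1% DMSO; started with 1 mM NADPH, 90 min at 37 °C. Aldosterone quantified by mass spectrometry; no-NADPH blank as 0%, no-compound as 100% activity, across compound concentrations.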

[2] = target: aldosterone synthase (CYP11B2) (Macaca fascicularis, UniProt A0A2K5UPL9); test: as above; conditions: 2 μM corticosterone substrate, 50 units CYP11B2, 90 min, 37° C.; read-out: Aldosterone Inhibition IC50
In short: as §1

[3] = target: cortisol synthase (CYP11B1) (Macaca fascicularis, UniProt A0A2K5ULY1); test: Inhibition of cortisol synthesis (cynomolgus adrenal mitochondria, cortisol by mass spectrometry)
In short: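 Cynomolgus adrenal mitochondria (150 units CYP11B1 activity) incubated with 11-deoxycortisol in 100 mM potassium phosphate pH 7.4, 1% DMSO; reaction started with 1 mM NADPH, 90 min at 37° C, stopped with MeCN. Cortisol quantified by mass spectrometry; IC50 from 4-parameter logistic fit versus no-compound (100%) and no-NADPH (0%) controls.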

[4] = 11-deoxycortisol substrate, 150 units CYP11B1; read-out: Cortisol Inhibition IC50
[5] = read-out: Cortisol Inhibition IC50; 11-deoxycortisol substrate, 150 units CYP11B1

Chain of aldosterone synthase (CYP11B2) (Macaca fascicularis, UniProt A0A2K5UPL9) (A0A2K5UPL9 1-503): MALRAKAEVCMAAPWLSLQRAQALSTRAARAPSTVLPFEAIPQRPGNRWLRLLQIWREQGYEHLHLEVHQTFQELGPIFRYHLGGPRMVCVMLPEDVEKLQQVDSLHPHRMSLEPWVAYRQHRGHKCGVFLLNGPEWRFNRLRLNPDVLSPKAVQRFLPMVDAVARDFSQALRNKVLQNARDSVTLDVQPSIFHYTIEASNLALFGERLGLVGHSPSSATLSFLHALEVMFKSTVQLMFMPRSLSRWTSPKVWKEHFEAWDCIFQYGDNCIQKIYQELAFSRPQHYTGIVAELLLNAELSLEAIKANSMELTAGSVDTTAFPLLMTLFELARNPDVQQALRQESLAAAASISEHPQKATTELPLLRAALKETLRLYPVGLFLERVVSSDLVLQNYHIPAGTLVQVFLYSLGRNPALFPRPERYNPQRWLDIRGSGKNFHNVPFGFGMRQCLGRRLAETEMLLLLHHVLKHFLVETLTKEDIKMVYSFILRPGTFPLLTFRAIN

| SMILES | Selectivity [1] | IC50 [2] [nM] | IC50 [3, 4] [nM] | IC50 [3, 5] [nM] |
| --- | --- | --- | --- | --- |
| CN1C(=O)CCc2cc(-n3cnc4c3C(=O)CC3(CC3)C4)ccc21 [C-ACH, 3-(1-Methyl-2-oxo-3,4-dihydroquinolin-6-yl)spiro[5,7-dihydrobenzimidazole-6,1′-cyclopropane]-4-one] | 300 | 16 | 4900 | – |
| CN1C[C@@H](n2cnc3c2C(=O)CC(C)(C)C3)CCC1=O [C-ACR, 6,6-Dimethyl-3-((S)-1-methyl-6-oxo-piperidin-3-yl)-3,5,6,7-tetrahydrobenzoimidazol-4-one] | 38 | 785 | > 30000 | – |
| CC1(C)CC(=O)c2c(ncn2-c2cccc(C(F)(F)F)c2)C1 [C-ABZ, 6,6-Dimethyl-3-(3-trifluoromethyl-phenyl)-3,5,6,7-tetrahydro-benzoimidazol-4-one] | 370 | 73 | 27000 | – |
| N#Cc1ccc(-n2cnc3c2C(=O)CC2(CCC2)C3)cc1Cl [C-ACG, 3-(4-Cyano, 3-chlorophenyl)-6,6-spirocyclobutyl-3,5,6,7-benzimidazolo-4-one] | 7.5 | 12 | – | 93 |
| N#Cc1ccc(-n2cnc3c2C(=O)CCC3)cc1Cl [C-AEA, 2-Chloro-4-(7-oxo-4,5,6,7-tetrahydro-benzoimidazol-1-yl)-benzonitrile] | 130 | 8.7 | – | 1100 |
| CC1(C)CC(=O)c2c(ncn2-c2ccc(C#N)cc2)C1 [C-ABX, 4-(5,5-Dimethyl-7-oxo-4,5,6,7-tetrahydro-benzoimidazol-1-yl)-benzonitrile] | 80 | 17 | 1300 | – |
| CC1(C)CC(=O)c2c(ncn2C2CCc3ncncc3C2)C1 (stereo not drawn) [C-ACV, 6,6-Dimethyl-3-(5,6,7,8-tetrahydro-quinazolin-6-yl)-3,5,6,7-tetrahydro-benzoimidazol-4-one] | 35 | 860 | > 30000 | – |
| O=C1CCCc2ncn(-c3ccc4c(c3)COC4)c21 [C-AAB, 3-(1,3-Dihydro-isobenzofuran-5-yl)-3,5,6,7-tetrahydro-benzoimidazol-4-one] | 270 | 85 | 23000 | – |
| CC(=O)c1ccc(-n2cnc3c2C(=O)CC(C)(C)C3)cc1 [C-ABL, 3-(4-Acetyl-phenyl)-6,6-dimethyl-3,5,6,7-tetrahydro-benzoimidazol-4-one] | 150 | 59 | 8800 | – |
| CC1(C)CCc2ncn(-c3ccc(C#N)cc3)c2C1=O [C-ADX, 4-(6,6-Dimethyl-7-oxo-4,5,6,7-tetrahydro-benzoimidazol-1-yl)-benzonitrile] | 153 | 14 | 2140 | – |
| CC1(C)CC(=O)c2c(ncn2Cc2ccc(F)cc2)C1 [C-ADO, 3-(4-Fluoro-benzyl)-6,6-dimethyl-3,5,6,7-tetrahydro-benzoimidazol-4-one] | 96 | 56 | 5400 | – |
| O=C1CCCc2ncn(C3Cc4ccccc4C3)c21 [C-ADK, 3-Indan-2-yl-3,5,6,7-tetrahydro-benzoimidazol-4-one] | 400 | 21 | 8400 | – |
| CCO[C@H]1C[C@H](n2cnc3c2C(=O)CC(C)(C)C3)C12CCC2 (relative stereo) [C-ADM, 3-((1S,3S)-3-Ethoxy-spiro[3.3]hept-1-yl)-6,6-dimethyl-3,5,6,7-tetrahydro-benzoimidazol-4-one] | 420 | 72 | > 30000 | – |
| CN1CCOc2cc(Cn3cnc4c3C(=O)CC(C)(C)C4)cnc21 [C-ADD, 6,6-Dimethyl-3-(4-methyl-3,4-dihydro-2H-pyrido[3,2-b][1,4]oxazin-7-ylmethyl)-3,5,6,7-tetrahydro-benzoimidazol-4-one] | 20 | 540 | 11000 | – |
